Test results taken from patent US8552052B2, “Use of diindolylmethane-related indoles for the treatment and prevention of respiratory syncytial virus associated conditions” (BioResponse, L.L.C., priority 2004, dated 2013).
Entries after “also recorded” stand apart in the source; their conditions may differ.

Experiments:
[1] = water and lipid; cited from earlier work
[2] = tested on: Mitogen Activated Protein Kinase (MAPK) cell signaling pathway; details: cell culture; cited from earlier work
[3] = tested on: Caspase 3; assay: Ac-DEVD-AFC caspase-3 protease assay of lung homogenate of RSV infected BALB/c mice; assay type: in vivo; details: oral and subcutaneous DIM, FIG. 5A
Method: (§1) The Following Experimental BALB/c Groups and Treatment Protocol Using DIM were Studied: • 1. RSV infected positive control group, infected with RSV and injected subcutaneously (SC) once daily with DMSO/Phosphate Buffered Saline (PBS) vehicle. • 2. RSV infected, Low dose Parenteral DIM group (15 mg/kg/day), injected SC once daily with DIM suspension • 3. RSV infected, High dose DIM Group (150 mg/kg/day), injected SC once daily with DIM suspension • 4. RSV infected, orally treated DIM group (250 mg/kg/day from absorption enhanced DIM [Example 6.1]), added to powdered feed • 5. Uninfected negative control group, nasally administered vehicle only, and injected subcutaneously (SC) once daily with DMSO/PBS vehicle
Mouse treatment, infection and harvest. Intranasal application of RSV in BALB/c mice followed an established procedure (Bitko et al., 2005, Nat Med. 11(1):50-5) and causes predictable pulmonary disease and inflammation. For RSV infection, RSV stock was diluted such that each mouse was given 10^7 pfu (plaque forming unit) of the virus intranasally. […]

[4] = tested on: estrogen-dependent and independent breast cancer cells; details: isolated DIM in cell culture; cited from earlier work
[5] = tested on: Recombinant RSV virus producing green fluorescent protein (gRSV); assay: Intracellular RSV growth, real-time fluorescence of GFP-producing RSV (gRSV) in A549 cells; assay type: cell-based, Respiratory Syncytial Virus; details: cultured A549 cells; beginning 12 hours after addition of nM DIM (70, 210, 700 nM); FIG. 3
Text: Levels of Intracellular RSV Growth—A real-time fluorescence measurement of live infected cells was utilized to determine the intracellular levels of RSV. Quantitation of real-time RSV growth in live cells was accomplished using a strain of RSV virus which produces florescent protein. Recombinant RSV virus producing green fluorescent protein (GFP) (‘green RSV’, abbreviated as ‘gRSV’) was kindly provided by Dr. Mark Peeples (Columbus Children's Res. Inst., Ohio). A549 cell monolayers were infected with the gRSV in the presence of indicated concentrations of DIM, and were periodically observed by fluorescence microscopy. For quantification, the fluorescence was measured in a standard plate-reader.

[6] = tested on: prostate cancer cell lines; details: cited from earlier work
[7] = tested on: Caspase-3; assay: Caspase-3 activation in RSV infected A549 cell culture; assay type: cell-based, human; details: RSV infected A549 cells; DIM 70, 210, and 700 nM
[8] = tested on: RSV Long strain; assay: Pulmonary viral assay (pfu in lung homogenate) in RSV infected BALB/c mice; assay type: in vivo
Method: as §1
Animals, cells, and viruses. Pathogen-free 8-10 week old female BALB/c mice, weighing between 16 and 20 g, were purchased from Charles River Laboratories. All mice were housed in cages covered with barrier filters and are fed mouse chow and water ad libitum. HeLa cells are maintained in Eagle's minimal essential medium supplemented with glutamine, gentamicin, penicillin G, and 10% fetal bovine serum.
RSV stock. RSV Long strain was grown on HEp-2 monolayers (American Type Culture Collection, Manassas, Va.). The extracellular media containing liberated progeny virus was collected at about 70 hr. The virus was purified and concentrated by precipitation with polyethylene glycol (MW 8,000) and sucrose gradient centrifugation. The final preparation had infectious titer in the range of 10^8-10^9 pfu/ml and was stored frozen at −80° C. in small portions. All infectious viral titers (plaque forming units [pfu]) were determined by agarose plaque assay on HEp-2 monolayers with neutral red staining using standard procedures. Another suitable strain is the A2 strain of RSV (American Type Culture Collection).
Mouse treatment, infection and harvest. […]
Pulmonary viral assay and clinical measurements. […] Respiratory rates (breaths per min) were determined by counting over a period of 2-3 mins. […]

[9] = tested on: rainbow trout; details: cited from earlier work

c1ccc2c(Cc3c[nH]c4ccccc34)c[nH]c2c1 [DIM, 3,3′-diindolylmethane]
solubility [1]: low solubility
MAPK cell signaling pathway activation [2]: activate the Mitogen Activated Protein Kinase (MAPK) cell signaling pathway
apoptosis in mouse lung homogenate: activated Caspase 3 [3]: increased apoptosis in lung tissue homogenate; also recorded: increased levels of apoptosis-specific, activated Caspase 3
apoptosis effects [4]: apoptosis promoting effects
intracellular RSV activity (growth) [5]: reduced intracellular RSV growth; also recorded: significantly reduced
anti-androgen activity [6]: anti-androgen activity similar to non-indole antiandrogen drugs
time of culture at which apoptosis specific Caspase-3 is activated [7]: less than 12 hrs
RSV growth in the lung / viral counts in lung tissue ([8]; DIM administered orally or parenterally, BALB/c mice): inhibit RSV growth in the lung; also recorded: significant reduction in viral counts in lung tissue
pulmonary viral count ([8]; SC administered DIM, 10 days pi, vs vehicle treated, RSV-infected controls, FIG. 4): significantly reduced pulmonary viral count
intrapulmonary replication of nasally administered RSV virus ([8]; oral 250 mg/kg/day and SC 15 and 150 mg/kg/day, 6 days post infection (pi), vs vehicle treated RSV-infected controls, FIG. 4): significantly reduced the intrapulmonary replication
estrogenic activity [9]: estrogenic
